This is an account of results in patent publication US20240083903A1, “ARYL ETHER COMPOUNDS AS TEAD MODULATORS” (Merck Sharp& Dohme LLC, priority 2021, published 2024).

SMILES strings stand for the structures.

The assay has as its system TEAD Reporter-MCF7 cell line. Kind of assay: YAP/TEAD cellular activity assay: inhibition of TEAD-Luc activity in TEAD Reporter-MCF7 cell line. Conditions: Homo sapiens, MCF7, 24 h, TEAD Reporter-MCF7 cells, 24 hours incubation with compound, luciferase readout. It counts as cell-based, human. How it is done: YAP/TEAD Cellular Activity Assay
Quantitation of Compound Potency on the Inhibition of TEAD-Luc Activity in TEAD Reporter-MCF7 Cell Line.
The TEAD Reporter-MCF7 cell line containing the firefly luciferase gene under the control of TEAD responsive elements stably integrated into the human breast cancer cell line was purchased from BPS Bioscience (Cat #60618). The cells were cultured with complete culture medium ([…], 1 mM sodium pyruvate, 10% fetal bovine serum, 10 ng/mL insulin and 400 ug/mL G418 sulfate) prior to the assay. For the assay, the cells were harvested, resuspended in the complete culture medium without G418, and seeded into white solid bottom 384-well cell culture microplates in 25 uL with 10,000 cells per well. The plates were incubated at 37° C. in a CO2 incubator for 20-24 hours and the compounds were then transferred from Echo LDV plates directly into the 384-well white tissue culture plates with an Echo. The plates were incubated at 37° C. in a CO2 incubator for 24 hours and equal volume of ONE-Glo™ EX Luciferase reagent (Promega, Cat #E8150) was added. After mixing on a shaker at room temperature for 10 minutes, the luciferase activity was measured with an Envision. The percentage inhibition and EC50 values of compounds were calculated with Spotfire.
Required Materials • 1. TEAD reporter-MCF-7 Cells (BPS Bioscience, #60618) • 2. Complete Cell Culture Medium (without selection antibiotics) • EMEM 89% (ATCC, #30-2003) • FBS 10% (Hyclone, #SH30088.03) • 1% Non essential amino acids (Gibco, • 1 mM sodium pyruvate (Gibco, • Pen/Strep, 1% (Gibco, #15140-122) • 10 ng/mL insulin (Sigma, #10516) • 3. Complete Cell Culture Medium (with selection antibiotics) • EMEM 89% (ATCC, #30-2003) • F1% Non essential amino acids (Gibco, • 1 mM sodium pyruvate (Gibco, • BS 10% (Hyclone, #SH30088.03) • 10 ng/mL insulin (Sigma, #10516) • 400 ug/mL G418 sulfate (Agilent, #200049-21) • 4. Miscellaneous tissue culture equipment and reagents. • 5. White solid 384-well tissue culture plate (Greiner, Cat #781080) • 6. One Glo EX luciferase assay system (Promega, #E8150)
The following table tabulates the biological data disclosed for the current invention. The biological data was collected using the methodology described above. For each compound, TEAD-Luc EC50 values are listed in nanomolar (nM) concentration units.
Take `CNS(=O)(=O)c1ccc(Oc2ccc(C(F)(F)F)cc2)c(-c2ccc(OC)c3nc(C(F)(F)F)[nH]c23)c1` [2-3, 3-[4-methoxy-2-(trifluoromethyl)-1H-benzimidazol-7-yl]-N-methyl-4-[4-(trifluoromethyl)phenoxy]benzene-1-sulfonamide]: the EC50 (commonly the concentration needed to bring the measured effect to its halfway point) worked out at 4920 nM.

In the case of `CNS(=O)(=O)c1ccc(Oc2ccc(C(F)(F)F)cc2)c(-c2ccc3c(c2)CC(=O)N3)c1` [2-4, N-methyl-3-(2-oxo-2,3-dihydro-1H-indol-5-yl)-4-[4-(trifluoromethyl)phenoxy]benzene-1-sulfonamide], the EC50 came out at 5480 nM.

Regarding `CNS(=O)(=O)c1ccc(Oc2ccc(C(F)(F)F)cc2)c(-c2ccc3[nH]c(=O)[nH]c3c2)c1` [2-5, N-methyl-3-(2-oxo-2,3-dihydro-1H-benzimidazol-5-yl)-4-[4-(trifluoromethyl)phenoxy]benzene-1-sulfonamide], the concentration giving a half-maximal response (EC50) amounted to 4540 nM.

For the compound `CNS(=O)(=O)c1ccc(Oc2ccc(C(F)(F)F)cc2)c(-c2ccc3scnc3c2)c1` [2-6, 3-(1,3-benzothiazol-5-yl)-N-methyl-4-[4-(trifluoromethyl)phenoxy]benzene-1-sulfonamide], the EC50 is 210 nM.

As to `CNS(=O)(=O)c1ccc(Oc2ccc(C(F)(F)F)cc2)c(-c2cccc3cc[nH]c23)c1` [2-7, 3-(1H-indol-7-yl)-N-methyl-4-[4-(trifluoromethyl)phenoxy]benzene-1-sulfonamide], the EC50 amounted to 5620 nM.

Regarding `CNS(=O)(=O)c1ccc(Oc2ccc(C(F)(F)F)cc2)c(-c2ccc3c(c2)n(C)c(=O)n3C)c1` [2-8, 3-(1,3-dimethyl-2-oxo-2,3-dihydro-1H-benzimidazol-5-yl)-N-methyl-4-[4-(trifluoromethyl)phenoxy]benzene-1-sulfonamide], the EC50 was determined as 198 nM.

Consider `CNS(=O)(=O)c1ccc(Oc2ccc(C(F)(F)F)cc2)c(-c2ccnc3[nH]ccc23)c1` [2-9, N-methyl-3-(1H-pyrrolo[2,3-b]pyridin-4-yl)-4-[4-(trifluoromethyl)phenoxy]benzene-1-sulfonamide], for which the concentration for a half-maximal effect (EC50) was found to be 2180 nM.

As for `CNS(=O)(=O)c1ccc(Oc2ccc(C(F)(F)F)cc2)c(-c2cnc3[nH]ccc3c2)c1` [2-10, N-methyl-3-(1H-pyrrolo[2,3-b]pyridin-5-yl)-4-[4-(trifluoromethyl)phenoxy]benzene-1-sulfonamide], the EC50 turned out to be 2420 nM.

As to `CNS(=O)(=O)c1ccc(Oc2ccc(C(F)(F)F)cc2)c(-c2ccc3c(c2)C(=O)N(CC2CC2)C3)c1` [2-11, 3-[2-(cyclopropylmethyl)-3-oxo-2,3-dihydro-1H-isoindol-5-yl]-N-methyl-4-[4-(trifluoromethyl)phenoxy]benzene-1-sulfonamide], the half-maximal effective concentration (EC50) stood at 338 nM.

Consider `CNS(=O)(=O)c1ccc(Oc2ccc(C(F)(F)F)cc2)c(-c2ccc3ncn(C4CC4)c3c2)c1` [2-12, 3-(1-cyclopropyl-1H-benzimidazol-6-yl)-N-methyl-4-[4-(trifluoromethyl)phenoxy]benzene-1-sulfonamide], for which the EC50 is 2860 nM.

Regarding `CNS(=O)(=O)c1ccc(Oc2ccc(C(F)(F)F)cc2)c(-c2cccc3nc(N)[nH]c23)c1` [2-13, 3-(2-amino-1H-benzimidazol-7-yl)-N-methyl-4-[4-(trifluoromethyl)phenoxy]benzene-1-sulfonamide], the EC50 was 3650 nM.

Consider `CNS(=O)(=O)c1ccc(Oc2ccc(C(F)(F)F)cc2)c(-c2ccc3c(c2)OCO3)c1` [2-14, 3-(2H-1,3-benzodioxol-5-yl)-N-methyl-4-[4-(trifluoromethyl)phenoxy]benzene-1-sulfonamide], for which the EC50 was determined as 247 nM.

In the case of `CNS(=O)(=O)c1ccc(Oc2ccc(C(F)(F)F)cc2)c(-c2ccc3c(cnn3C)c2)c1` [2-15, N-methyl-3-(1-methyl-1H-indazol-5-yl)-4-[4-(trifluoromethyl)phenoxy]benzene-1-sulfonamide], the EC50 came to 336 nM.

Take `CNS(=O)(=O)c1ccc(Oc2ccc(C(F)(F)F)cc2)c(-c2cnn3c2CCCC3)c1` [2-16, N-methyl-3-(4,5,6,7-tetrahydropyrazolo[1,5-a]pyridin-3-yl)-4-[4-(trifluoromethyl)phenoxy]benzene-1-sulfonamide]: the EC50 is 631 nM.

Turning to `CNS(=O)(=O)c1ccc(Oc2ccc(C(F)(F)F)cc2)c(-c2cnn3c2OCC(C)C3)c1` (centres unmarked) [2-17, N-methyl-3-(6-methyl-6,7-dihydro-5H-pyrazolo[5,1-b][1,3]oxazin-3-yl)-4-[4-(trifluoromethyl)phenoxy]benzene-1-sulfonamide], the concentration for a half-maximal effect (EC50) is 590 nM.

In the case of `CNS(=O)(=O)c1ccc(Oc2ccc(C(F)(F)F)cc2)c(-c2cnc3c(c2)OCCN3C)c1` [2-18, N-methyl-3-(4-methyl-3,4-dihydro-2H-pyrido[3,2-b][1,4]oxazin-7-yl)-4-[4-(trifluoromethyl)phenoxy]benzene-1-sulfonamide], the EC50 amounted to 606 nM.

As to `CNS(=O)(=O)c1ccc(Oc2ccc(C(F)(F)F)cc2)c(-c2cncc3ccccc23)c1` [2-19, 3-(isoquinolin-4-yl)-N-methyl-4-[4-(trifluoromethyl)phenoxy]benzene-1-sulfonamide], the concentration giving a half-maximal response (EC50) came out at 8860 nM.

`CNS(=O)(=O)c1ccc(Oc2ccc(C(F)(F)F)cc2)c(-c2cccc3cnccc23)c1` [2-20, 3-(isoquinolin-5-yl)-N-methyl-4-[4-(trifluoromethyl)phenoxy]benzene-1-sulfonamide]: the half-maximal effective concentration (EC50) worked out at 4780 nM.

As for `CNS(=O)(=O)c1ccc(Oc2ccc(C(F)(F)F)cc2)c(-c2cc3ccc(C)nc3cc2OC)c1` [2-21, 3-(7-methoxy-2-methylquinolin-6-yl)-N-methyl-4-[4-(trifluoromethyl)phenoxy]benzene-1-sulfonamide], the EC50 came to 9780 nM.

For the compound `CNS(=O)(=O)c1ccc(Oc2ccc(C(F)(F)F)cc2)c(-c2ccc3c(c2)NC(=O)CO3)c1` [2-22, N-methyl-3-(3-oxo-3,4-dihydro-2H-1,4-benzoxazin-6-yl)-4-[4-(trifluoromethyl)phenoxy]benzene-1-sulfonamide], the half-maximal effective concentration (EC50) amounted to 92.6 nM.

Turning to `CNS(=O)(=O)c1ccc(Oc2ccc(C(F)(F)F)cc2)c(-c2cc3c(cc2F)N(C)C(=O)CC3)c1` [2-23, 3-(7-fluoro-1-methyl-2-oxo-1,2,3,4-tetrahydroquinolin-6-yl)-N-methyl-4-[4-(trifluoromethyl)phenoxy]benzene-1-sulfonamide], the concentration for a half-maximal effect (EC50) came to 3640 nM.

For `CNS(=O)(=O)c1ccc(Oc2ccc(C(F)(F)F)cc2)c(-c2ccc3cccnc3c2)c1` [2-24, N-methyl-3-(quinolin-7-yl)-4-[4-(trifluoromethyl)phenoxy]benzene-1-sulfonamide], the 50% effective concentration (EC50) was 273 nM.

Consider `CNc1ncc2cc(-c3cc(S(=O)(=O)NC)ccc3Oc3ccc(C(F)(F)F)cc3)ccc2n1` [2-25, N-methyl-3-[2-(methylamino)quinazolin-6-yl]-4-[4-(trifluoromethyl)phenoxy]benzene-1-sulfonamide], for which the EC50 came out at 232 nM.

Take `CNS(=O)(=O)c1ccc(Oc2ccc(C(F)(F)F)cc2)c(-c2cccc3c2OCC(=O)N3)c1` [2-26, N-methyl-3-(3-oxo-3,4-dihydro-2H-1,4-benzoxazin-8-yl)-4-[4-(trifluoromethyl)phenoxy]benzene-1-sulfonamide]: the EC50 was 3180 nM.

As for `CNS(=O)(=O)c1ccc(Oc2ccc(C(F)(F)F)cc2)c(-c2ccc3nccnc3c2)c1` [2-27, N-methyl-3-(quinoxalin-6-yl)-4-[4-(trifluoromethyl)phenoxy]benzene-1-sulfonamide], the EC50 came to 410 nM.

As to `CNS(=O)(=O)c1ccc(Oc2ccc(C(F)(F)F)cc2)c(-c2ccc3c(c2)OCC(=O)N3)c1` [2-28, N-methyl-3-(3-oxo-3,4-dihydro-2H-1,4-benzoxazin-7-yl)-4-[4-(trifluoromethyl)phenoxy]benzene-1-sulfonamide], the EC50 worked out at 5230 nM.

In the case of `CNS(=O)(=O)c1ccc(Oc2ccc(C(F)(F)F)cc2)c(-c2ccc3nc(OC)ccc3c2)c1` [2-29, 3-(2-methoxyquinolin-6-yl)-N-methyl-4-[4-(trifluoromethyl)phenoxy]benzene-1-sulfonamide], the EC50 was found to be 89.7 nM.

Consider `CNS(=O)(=O)c1ccc(Oc2ccc(C(F)(F)F)cc2)c(-c2cnc3cccnc3c2)c1` [2-30, N-methyl-3-(1,5-naphthyridin-3-yl)-4-[4-(trifluoromethyl)phenoxy]benzene-1-sulfonamide], for which the EC50 worked out at 675 nM.

In the case of `CNS(=O)(=O)c1ccc(Oc2ccc(C(F)(F)F)cc2)c(-c2ccc3nc(C)ccc3c2)c1` [2-31, N-methyl-3-(2-methylquinolin-6-yl)-4-[4-(trifluoromethyl)phenoxy]benzene-1-sulfonamide], the EC50 is 663 nM.
